The record followed here is US20190358238A1, “ALLOSTERIC ANTAGONISTS OF GPRC6a AND THEIR USE IN MITIGATING PROTEINOPATHIES” (UNIVERSITY OF SOUTH FLORIDA, priority 2016, published 2019).

“Also recorded” adds a separate entry of the source.

Broadly, the half-life is the time in which the quantity being followed falls by half. For orientation: clearance means the rate of elimination divided by the concentration.

Series [1] concerns C3H/htau cells. The experiment in a line: tau expression in C3H/htau cells treated 72 hours, samples run on a gel. The class given is cell-based. The following applies: for monomeric and high molecular weight (HMW) tau multimers: 72 hours. As to the method:
(§1) FIG. 3A, FIG. 3B, FIG. 3C, FIG. 3D. C3H/htau cells treated with siRNA to GPRC6A show decreased tau expression compared to scrambled siRNA (FIG. 3A). GPRC6a allosteric antagonist Cpd#3 (Drug 47661) (0-250 tLM) decreases monomeric and high molecular weight (HMW) tau multimers (FIG. 3B) in C3H/htau cells. FIG. 3C-FIG. 3D show decreased tau in primary neurons after (Drug 47661) decreases tau at 10-100 nM. All treatments=72 hours (n=3 independent exp.).
FIG. 6. C3H/htau cells treated with GPRC6A antagonist show decreased tau expression compared to vehicle (dotted line and first lane in each well). All GPRC6a allosteric antagonists Drug 47661 (red), PF020 (blue), PF037 (black) (0-100 μM) decreased monomeric and high molecular weight (HMW) tau multimers in C3H/htau cells at different concentrations. All treatments=72 hours (n=3 independent exp.).
rTg4510 tau mice comprise of the tau P301L mutation which expresses in the forebrain and hippocampus (K. Santacruz, et al. Science 2005, 309, 476). […] Accumulation of ptau occurs largely between 3 and 9 mo of age. Additionally, high-molecular weight tau multimers/oligomers and nitrated tau also accumulate in rTg4510 tau transgenic mice compared to non-transgenic littermates (J. B. Hunt, Jr., et al. J. Neurosci. 2015, 35, 14842). […] In stably tau overexpressing HeLa cells (C3H/htau), siRNA to GPRC6a reduced receptor expression coupled with a reduction in tau […]. We will repress GPRC6a expression in the CNS with rAAV-shRNA-GPRC6a to reduce receptor signaling.
(§2) Some of the compounds have 9-fold more selectivity for GPRC6a than our current compound in a FRET-based assay (H. Johansson, et al. J. Med. Chem. 2015, 58, 8938), and an excess of 50 derivatives to these current lead compounds will be analyzed. A tetracycline inducible “on” tau fusion-Dendra2 stable cell line will be used, which is a green-to-red irreversible photoswitchable fluorescent protein activated by UV-violet/blue light. We will induce tau expression with tetracycline (1 μg/mL) for 24 h, then photo convert tau dendra2-green with blue light (488 nm) for 10 minutes to tau-dendra2-red for monitoring kinetics of tau. […] We will treat cells with GPRC6a allosteric antagonists for 72 hours with continual red fluorescent output readings every 6 hours (553 nm ex and 573 nm em). This assay will measure tau degradation kinetics over time (time 0 point at which photo switch occurs from tau-green to tau-red) (FIG. 5). Agents that govern tau biology will alter the rate of tau degradation (tau-red). Newly synthesize tau (tau-green) will fluoresce green to be measure on a separated channel. We will also co-label cells with DAPI nuclear stain to account for cell loss and nuclear chromatin changes. We will use Biotek®@ Cytation™ 3 Cell Imaging Multi-Mode Reader located at Byrd Institute. We will use a 96 well semi-high throughput platform with GPRC6a antagonist concentrations ranging from (10 nM-100 μM). We will also perform cell toxicity assays (Cyto Tox-ONE LDH Membrane Integrity Assay, Promega). We will perform western blot analysis in C3H/htau cells from GPRC6a antagonists that reduce tau levels more than 30% at 3 μM or below and with no more than 5-10% toxicity. We will measure autophagy related makers to determine the mechanism for tau reduction.
C3H/htau cells were treated for 72 hours with varying concentrations of GPRC6A antagonist Drug 47661, PF020, or PF037. Samples were run on a gel. […]

Series [2] deals with primary neurons. The experiment in a line: tau in primary neurons after 72 hours treatment. The class given is cell-based. The following applies: 10-100 nM, endogenous tau, nanomolar efficacy. As to the method:
as §1
Some of the compounds have 9-fold more selectivity for GPRC6a than our current compound in a FRET-based assay (H. Johansson, et al. J. Med. Chem. 2015, 58, 8938), and an excess of 50 derivatives to these current lead compounds will be analyzed. A tetracycline inducible “on” tau fusion-Dendra2 stable cell line will be used, which is a green-to-red irreversible photoswitchable fluorescent protein activated by UV-violet/blue light. We will induce tau expression with tetracycline (1 μg/mL) for 24 h, then photo convert tau dendra2-green with blue light (488 nm) for 10 minutes to tau-dendra2-red for monitoring kinetics of tau. […] We will treat cells with GPRC6a allosteric antagonists for 72 hours with continual red fluorescent output readings every 6 hours (553 nm ex and 573 nm em). […] We will use Biotek®@ Cytation™ 3 Cell Imaging Multi-Mode Reader located at Byrd Institute. […]

Series [3] has as its system PS 19 tau (P301S) transgenic mice. As to the kind of experiment: acute bolus injection into PS19 tau (P301S) transgenic mice, western blot after 72 hours. The class given is in vivo, mouse. As to the method: FIG. 4. GPRC6a allosteric antagonist impacts tau levels and modifies autophagy markers in PS 19 tau transgenic mice. PSI9 (P301S) mice (bottom left of panel) show tau AT8 accumulation received an acute bolus injection of vehicle on one hemisphere and the antagonist (Drug 47661, 78 ng) on the opposite hemisphere for 72 hours.
as §2

Series [4] is described as follows: half-life of Drug 47661 in naive mice after IV injection. It counts as in vivo, mouse. As to the method: FIG. 9. Graphs show relative half-life of Drug 47661. Naïve mice were injected with 5 mg/kg of Drug 47661 IV. Serial submandibular bleeds were taken 15 min and 60 min post IV injection. […] (N=3).
The half-life of GPRC6A antagonist Drug 47661 was examined. Naïve mice were injected with 5 mg/kg of Drug 47661 by IV. Serial submandibular bleeds were taken 15 min and 60 min post IV injection. […] (N=3). Shown in FIG. 9 is a graph showing the relative half-life of Drug 47661.

The test system of series [5] is BE(2) M17 cells. As to the kind of experiment: alpha synuclein expression in BE(2) M17 cells stably transfected with wild-type alpha synuclein. It counts as cell-based. The following applies: 72 hours, relative to GAPDH. As to the method:
FIG. 10. Shown are BE(2) M17 cells stably transfected with wild-type alpha synuclein (16 kDa) treated with GPRC6a antagonist drug 47661 for 72 hours. […] Statistical analysis was performed using One-way Anova with Fisher's LSD multiple comparison test as post hoc. (n=3 independent experiments).
BE(2) M17 cells were stably transfected with wild-type alpha synuclein (16 kDa) and treated with GPRC6a antagonist drug 47661 for 72 hours. Samples were run on a gel. […] Statistical analysis was performed using One-way Anova with Fisher's LSD multiple comparison test as post hoc.

Where [6] appears, read: 78 ng bolus injection, western blot.

In the case of `CN(CC(=O)c1c(-c2ccccc2)[nH]c2ccccc12)CC(=O)N1CCOCC1` [Drug 47661, 2-(methyl(2-morpholino-2-oxoethyl)amino)-1-(2-phenyl-1H-indol-3-yl)ethan-1-one], the “monomeric and high molecular weight (HMW) tau multimers” value (from here on “monomeric and high molecular weight”) in series [1] (0-100 μM, vs vehicle, FIG. 6) is “decreased”. Further, the “monomeric and high molecular weight” value in series [1] (0-250 tLM, FIG. 3B) is “decreases”. Also, the “clearance among monomeric, insoluble, and oligomeric tau” value in series [1] (micromolar efficacy) was “significant clearance”. In series [2], the “tau in primary neurons” value was “reduced; also recorded: decreased tau”. Moreover, in series [3] (setting [6]), the “beclin 1” value was “increased”, the mTOR entry is on record as “decreased” and the p62 entry is “decreased”. The “tau expression (total tau)” value in series [3] (78 ng one-time bolus injection, entorhinal cortex, vs vehicle hemisphere) is “modestly reduced”. In addition, in series [4] (5 mg/kg IV (FIG. 9 legend)), the clearance rate was 4.5 Lh/kg. Further, in series [4] (mouse, blood, 5 mg/kg IV), the half-life was 9.6 min. Also, the clearance in series [4] (mouse, blood, 5 mg/kg IV, read-out: clearance rate (converted)) is 75 mL/min/kg. In addition, the Vd in series [4] (mouse, blood, 5 mg/kg IV, read-out: volume of distribution) stood at 1.07 L/kg. In addition, in series [5], the “monomeric (16 kDa) and oligomeric (>75 kDa) alpha synuclein expression” value is recorded as “decreased”.

For `O=C(CN1CCCC(C(=O)N2CCOCC2)C1)c1c(-c2ccccc2)[nH]c2ccccc12` (stereo not drawn) [PF020, 2-(3-(morpholine-4-carbonyl)piperidin-1-yl)-1-(2-phenyl-1H-indol-3-yl)ethan-1-one], the “monomeric and high molecular weight” value in series [1] (0-100 μM, vs vehicle, FIG. 6) was “decreased”.

As to `CN(CCN1CCOCC1)CC(=O)c1c(-c2ccccc2)[nH]c2ccccc12` [PF037], in series [1] (0-100 μM, vs vehicle, FIG. 6), the “monomeric and high molecular weight” value is reported as “decreased”.
